Results from patent US12448624B2, “Modified nucleic acid having improved treatment efficacy, and anticancer pharmaceutical composition containing same” (INTEROLIGO CORPORATION, priority 2018, dated 2025).
{Gem} = gemcitabine nucleotide residue

Key:
[1] = In vitro stability: dFdC and dFdU in plasma by LC-MS/MS; assay type: in vitro ADME; conditions: rat plasma
Procedure: From the chromatogram obtained by the established LC-MS/MS assay method, peak area ratios of dFdC, dFdU and dFdCTP to a peak area of the internal standard substance were estimated, followed by calculating a concentration in the mouse plasma and a concentration in tissues from a previously created calibration curve.
1 mL of mouse blood was collected and placed in a 1.5 mL Eppendorf tube containing 10 μL of 10 mg/mL (in DW) tetrahydrouridine (THU). After centrifugation under conditions of 14,000 rpm and 4° C. for 2 minutes using a centrifuge, only plasma was taken and transferred to another vial and stored at −80° C. After transferring 50 μL of plasma to a 1.5 mL amber Eppendorf tube, 150 μL of an internal standard substance (meltform 1.29 μg/mL in ACN) was added and vortexed for 10 minutes. Centrifugation was conducted using a centrifuge under conditions of 14,000 rpm and 4° C. for 20 minutes. In the centrifuged tube, 150 μL of sample was transferred to another 1.5 mL amber Eppendorf tube. An organic solvent was dried using a GeneVac EZ-2 automated evaporation system (GeneVac Ltd., Ipswich, UK). (GeneVac HPLC mode, max temperature 35° C., 1 hr). The organic solvent was reconstituted by adding 125 μL DW to a 1.5 mL dried amber Eppendorf tube. After vortexing for 5 minutes, centrifugation was conducted using a centrifuge under conditions of 14,000 rpm and 4° C. for 5 minutes. The supernatant of the centrifuged solution was added in an amount of 100 μL to each vial for LC-MS/MS using a PTFE (hydrophilic) 0.2 μm syringe filter (Toyo Toshi, Japan). Specifically, 5 μL of the supernatant was injected into each LC-MS/MS.
Chromatography was performed using an Agilent 1200 series separation module (Agilent Technologies, Waldbronn, Germany). […] An injection volume was 5 μL, a mobile phase was a gradient eluent system [A: 100% ACN, B: 0.1% formic acid in DW], and a total running time was 20 minutes. A calibration range was set to be 20 to 5,000 ng/mL.
Each sample was treated according to the above 2-1-1 and 2-1-2, and a ratio of dFdC/dFdU in rat plasma was measured in regard to the compound types of (Gem)x-[TGG]m[TTG][TGG]n.

[2] = Stability of atelocollagen/collagen disk formulations in rat plasma; assay type: in vitro ADME; conditions: 37° C.
Procedure: Sample treatment, calibration curve creation, and LC-MS/MS analysis conditions are the same as described above.
Sample treatment was conducted as follows. […] Thereafter, the supernatant was taken and then centrifuged again under the same conditions as above. Then, 5 μL of the concentrate was taken and diluted by 10-fold using the same rat plasma in order to measure a concentration in plasma (“plasma concentration”). […] The above sample treatment was conducted in the same manner as the calibration curve creation, followed by performing sample analysis under the same LC-MS/MS conditions.
In order to evaluate the stability of the IO101L/atelocollagen disk formulation in rat plasma, experiments were conducted with 5 groups (Groups 1-5) (see Table 12 below). Normal collagen (SK Co.) was used for comparison with atelocollagen.

[3] = test system: patient-derived pancreatic cancer cells; assay: PDX pancreatic cancer mouse model, TUNEL analysis; assay type: in vivo; conditions: 1 month after implantation
Excerpt: Untreated control mice were also included for comparison.
1 month after the disk implantation, mice were sacrificed, and tissue samples and blood were collected.

[4] = in vivo; conditions: rat, iv
Procedure: Sprague-Dawley male rats were subjected to induced anesthesia with isoflurane, which is an inhalation anesthetic, then a polyethylene (PE) tube (Clay Adams, Becton Dickinson, NJ, USA) was inserted into a carotid artery (for blood collection) and sutured with a suture, followed by fixing an end of the suture behind the neck. During surgery, anesthesia was maintained using ether and about 0.5 mL of physiological saline containing heparin (20 units/mL) was injected to prevent blood from clotting in a cannula. After the surgery is finished, the rats were placed in metabolic cages and allowed to recover completely from the anesthetic condition (4 to 5 hours), respectively. […] 1 and 2 ml/kg of drugs were administered intravenously. […] 5. 15. 30, 45, 60, 120, 360 and 720 minutes after the administration, 0.3 mL of blood was each collected through a […]. […] Then, the blood in the Eppendorf tube was immediately centrifuged, followed by storing the plasma.
All analytical procedures were implemented under conditions of shielding the tube. That is, all procedures were performed under quantification condition: SRM (selected reaction monitoring) mode (see Table 5 above), fixed phase condition: Hypersil gold C18, 1.9 μm, 100×2.1 mm^2 (Thermo Scientific, Matriks, Oslo, Norway), and mobile phase condition: distilled water (A) containing 0.1% formic acid and acetonitrile (B) (see Table 6 above).
Metformin as an internal standard substance (IS) was dissolved in acetonitrile to prepare another working solution of 645 ng/mL.
150 μL of the internal standard, that is, metformin was added to 50 μL of plasma (645 ng/mL in acetonitrile) and vortexed for 10 minutes, followed by performing centrifugation at 15,000 rpm and […] for 20 minutes. Thereafter, 150 μL of the supernatant was taken and transferred to another Eppendorf tube, and then the organic solvent was dried under a nitrogen stream. Then, 125 μL of tertiary distilled water was added to the dried Eppendorf tube, allowed to be redissolved. Then, the solution was vortexed for 5 minutes, centrifuged at 15,000 rpm and […] for 5 minutes. Thereafter, 100 μL of the supernatant was transferred to the vial for LC-MS/MS, 5 μL of the supernatant was injected and analyzed by LC-MS/MS.
Values of an area under the plasma concentration-time curve (AUCt) were calculated using a log-linear trapezoidal equation from the plasma concentration-time curves after the administration of drug to the final quantification time (specifically, the linear-trapezoidal equation is used in a section where the plasma concentration is increased, while in another section where plasma concentration is decreased, the trapezoidal equation is used by log transforming the concentration value). After oral administration, the highest plasma concentration (Cmax) and the time to reach the highest plasma concentration (Tmax) were determined from the plasma concentration-time curve. Values of the area (AUCinf) under the plasma concentration till infinite time-time curve were determined using the following equation. A terminal elimination rate constant (γZ) and half-life (t1/2) were determined from a slope of elimination of the plasma concentration. AUinf=AUCt+Ct/γZ(Ct: final quantification concentration, γZ: terminal elimination rate constant)

[5] = mouse, in vivo
Procedure: Male […]/severe combined immunodeficiency mice, NOD/Shi-scid, IL-2RγKO mice (NOG mice®) (Central Lab Animal Inc., Saeronbio Inc., Seoul) and female nu/nu athymic mice (Orientbio) were maintained in 12 hours light/12 hours dark cycle under pathogen-free conditions. At the time of surgery, 10 new pancreatic tumor specimens stored in the patient's primary tumor (Institutional Examination Committee No. 4-2017-0594) was placed on ice-cooled RPMI medium, PDX SOP of PDTX Cleanbench Department Laboratory Animal Resources (Yonsei Biomedical Research Institute, Seoul) was washed with cold PBS, and non-necrotic fragments were cut into small pieces (2×2×2 mm) to remove blood or lipid portions. […]
After skin incision in PDX mice, the control (No treatment), Gem-IP (; sol-gel type), IO101-IP (; sol-gel type), IO101/AC disk (2.0 mg/3.0%), IO101-Con/AC (2.0 mg/3.0%) and Gem/atelocollagen disk (0.12 mg/3.0%), respectively, were implanted locally by subcutaneous anesthetic dissection between skin and tumor. A tumor size was measured three times per week by caliper measurement (Mitutoyo, Absolute AOS Digmatic, Kawasaki, Japan), and a volume was calculated as described above. Tumor growth in drug-treated animals was expressed as a tumor growth rate (tumor volume/initial tumor volume) compared to vehicle-treated mice. […]

[6] = test system: MD-MBA 231 (breast cancer); assay: Cell proliferation inhibition (MTT), MD-MB231; assay type: cell-based; conditions: MTT assay, 3 days
Procedure: (§1) 2.5 to 5.0×10^5 cells/well, which is the cell number defined by cell test to determine the appropriate cell concentration in the pancreatic cancer cell line B x PC3 cell (ATCC, IMDM+10% PBS), were seeded in a 96 well plate and incubated for one day. […] The treated BxPC3 cells were incubated in a 5% CO2 incubator for 3 days, treated with 20 μL of reagent solution for MTT assay (Cell Proliferation KitII, Roche), and then incubated hourly (10 minutes, 30 minutes, 60 minutes), followed by measuring absorbance at 490 nm by a reader through ELISA (See FIGS. 28 and 29).
(§2) Cell proliferation inhibitory efficacy against other cell lines MD-MBA 231 (breast cancer), Uuh-7 (liver cancer), HT29 (colon cancer) and Mv4-11 (AML) was also verified in the same manner as described above.

[7] = test system: BxPC3, PANC-1, Miapaca-2, and Capan-1; assay: Cell survival (WST-1) of pancreatic cancer cell lines; assay type: cell-based; conditions: WST-1, 48 hours, 100 nM to 100 μM, all four pancreatic cancer cell lines
Procedure: BxPC3, PANC-1, Miapaca-2, and Capan-1 were cultured as pancreatic cancer cell lines, respectively. When the cells were stable after several subcultures, 1×10^3 cells were seeded in 96 well plates to verify drug effects. On the next day, IO101, IO100, IO100-Con, IO101-Con and Gem at the highest concentration of 100 μM were diluted by 1/10 per each well, and prepared at a concentration of 4 points up to 100 nM. Then, the cells seeding in the 96 well plates were treated using the above prepared variants. After 48 hours, 10 μl of WST-1 solution was added to the wells and incubated in a 37° C. incubator for 1 hour. Subsequently, each sample was measured at 440 nm in a micro plate reader (VERSA Max). After calculation of the measured values, a cell survival rate graph for each treatment concentration was drawn up.

[8] = test system: BxPC3 (pancreatic cancer); assay: Cell proliferation inhibition (MTT), BxPC3; assay type: cell-based; conditions: MTT assay, 3 days
Procedure: as §1, §2

Molecule: (Gem)2-[TGG]5[TTG][TGG]5 [compound 13]
- dFdC/dFdU ratio [1]: 11.85

Molecule: (Gem)2-[TGG]2[TTG][TGG]2 [compound 4]
- dFdC/dFdU ratio [1]: 2.61

Molecule: (Gem)2-[TGG]2[TTG][TGG]1 [compound 3]
- dFdC/dFdU ratio [1]: 2.20

Molecule: (Gem)2-[TGG]3[TTG][TGG]3 [compound 7]
- dFdC/dFdU ratio [1]: 3.29

Molecule: (Gem)2-[TGG]6[TTG][TGG]6 [compound 16]
- dFdC/dFdU ratio [1]: 13.59

Molecule: (Gem)2-[TGG]1[TTG][TGG]1 [compound 1]
- dFdC/dFdU ratio [1]: 1.76

Molecule: (Gem)2-[TGG]4[TTG][TGG]3 [compound 9]
- dFdC/dFdU ratio [1]: 6.04

Molecule: (Gem)2-[TGG]2[TTG][TGG]3 [compound 5]
- dFdC/dFdU ratio [1]: 2.79

Molecule: (Gem)2-[TGG]3[TTG][TGG]4 [compound 8]
- dFdC/dFdU ratio [1]: 3.80

Molecule: Nc1ccn([C@@H]2O[C@H](CO)[C@@H](O)C2(F)F)c(=O)n1 [Gemcitabine, 2,2′-difluorodeoxycytidine]
- dFdC Blood concentration ([2]; 2 hours incubation): 218 µg/mL
- dFdC Blood concentration, supernatant ([2]; supernatant (Ultracell-3K), 2 hours): 232 µg/mL
- apoptosis (TUNEL analysis) in tumor [3]: an apoptosis process was confirmed
- AUC(0-inf) ([4]; male, Sprague-Dawley, 8 mg/kg): 24500 ng·h/mL
- AUC(0-t) ([4]; male, Sprague-Dawley, 8 mg/kg): 23200 ng·h/mL
- Cmax ([4]; male, Sprague-Dawley, 8 mg/kg): 13300 ± 5640 ng/mL
- MRT ([4]; male, Sprague-Dawley, 8 mg/kg): 3.48 h
- Tmax ([4]; male, Sprague-Dawley, 8 mg/kg): 1 min
- Vd ([4]; male, Sprague-Dawley, 8 mg/kg): 1.15 ± 0.223 L/kg
- clearance ([4]; male, Sprague-Dawley, 8 mg/kg): 5.59 ± 0.86 mL/min/kg
- dFdU AUCt ([4]; male, Sprague-Dawley, 8 mg/kg): 265 ± 57.1 µg·min/mL
- dFdU Cmax ([4]; male, Sprague-Dawley, 8 mg/kg): 477 ± 87.9 ng/mL
- dFdU Tmax ([4]; male, Sprague-Dawley, 8 mg/kg): 240 (120-360) min
- half-life ([4]; male, Sprague-Dawley, 8 mg/kg): 2.95 ± 0.475 h
- concentration at 30 min ([4]; male, Sprague-Dawley, Gemcitabine blood concentration, 30 minutes): 5600 ng/mL
- concentration at 45 min ([4]; male, Sprague-Dawley, Gemcitabine blood concentration, 45 minutes): 3410 ng/mL
- concentration at 60 min ([4]; male, Sprague-Dawley, Gemcitabine blood concentration, 60 minutes): 3550 ng/mL
- concentration at 120 min ([4]; male, Sprague-Dawley, Gemcitabine blood concentration, 120 minutes): 2800 ng/mL
- dFdU blood concentration, 1 minute [4]: BLLoQ
- dFdU blood concentration, 5 minutes [4]: BLLoQ
- PLT [5]: 684.1 ± 246.3 X1000/μl

Molecule: (Gem)2-[TGG]5[TTG][TGG]4 [compound 12]
- dFdC/dFdU ratio [1]: 13.63

Molecule: (Gem)2-[TGG]5[TTG][TGG]6 [compound 14]
- dFdC/dFdU ratio [1]: 11.59

Molecule: (Gem)2-[TGG]1[TTG][TGG]2 [compound 2]
- dFdC/dFdU ratio [1]: 2.01

Molecule: (Gem)2-[TGG]4[TTG][TGG]4 (DNA TGGTGGTGGTGGTTGTGGTGGTGGTGG; two 5' gemcitabine residues, chemistry not fully specified) [compound 10, gemcitabine-containing oligonucleotide variant]
- IC50 [6]: 18 nM
- dFdC/dFdU ratio [1]: 12.00
- pancreatic cancer cell growth inhibition (cell survival rate) [7]: effectively inhibits pancreatic cancer cell growth in proportion to a drug concentration
- IC50 [8]: 8.9 nM

Molecule: (Gem)2-[TGG]4[TTG][TGG]5 (DNA TGGTGGTGGTGGTTGTGGTGGTGGTGGTGG; DNA, 5' {Gem}-{Gem}, backbone not given here) [compound 11, gemcitabine-containing oligonucleotide variant]
- IC50 [6]: 15 nM
- dFdC/dFdU ratio [1]: 14.10
- pancreatic cancer cell growth inhibition (cell survival rate) [7]: pancreatic cancer cell growth was effectively inhibited
- dFdU Tmax [4]: 360 min
- IC50 [8]: 8.5 nM

Molecule: (Gem)2-[TGG]3[TTG][TGG]2 [compound 6]
- dFdC/dFdU ratio [1]: 2.84

Molecule: (Gem)2-[TGG]6[TTG][TGG]5 [compound 15]
- dFdC/dFdU ratio [1]: 13.67
